Conditions in all cases: 1 mM NHDC
The target of assay [1] is T1, human TAS1R3 and rat Tas1r2 (Homo sapiens, UniProt Q7RTX0).
T1 construct: expressed in transfected cells; host or cells: HEK293T cells stably expressing G16Gust44
Description: Calcium response, interspecies subunit combination. Format: cell-based. The source says:
(§1) In order to elucidate the putative binding site for NHDC, we cotransfected mixtures of plasmid DNAs for the rat and human TAS1R2 and TAS1R3 receptor subunits in HEK293T cells stably expressing the chimeric G-protein G16Gust44 and measured cellular calcium responses by fluorometry following bath application of various sweet tasting compounds.
(§2) Figure 1 Chemical structure and calcium responses elicited by neohesperidin dihydrochalcone. (A) Structure of neohesperidin dihydrochalcone. Numbers denote carbon atom positions. […]
(§3) The cDNAs for TAS1Rs tagged at the C-terminus with the herpes simplex virus glycoprotein D (HSV) were transiently transfected into HEK293T cells stably expressing the chimeric G-protein subunit G16Gust44 [44] using Lipofectamine 2000 (Invitrogen, Carlsbad, CA) according to the manufacturer's protocol. […] We monitored calcium mobilization following receptor stimulation with sweet tastants by an automated fluorometric imaging plate reader (FLIPR, Molecular Devices, Sunnyvale, CA). […] The obtained calcium signals were corrected for the response of mock transfected cells and normalized to the fluorescence of cells prior to the application of the stimulus using ΔF/F = (F-F0)/F0. Concentration-response curves and EC50 and IC50 values were calculated in SigmaPlot by nonlinear regression using the function f = ((a-d)/(1+(x/EC50)^nH)+d) and f = (a-b)/[1+(x/IC50)^nH]+b, respectively.

Assay [2] deals with T2, rat Tas1r3 and human TAS1R2 (opposite combination) (Rattus norvegicus, UniProt Q923K1).
T2 construct: expressed in transfected cells; host or cells: HEK293T cells stably expressing G16Gust44
T2 sequence (Q923K1 21-858): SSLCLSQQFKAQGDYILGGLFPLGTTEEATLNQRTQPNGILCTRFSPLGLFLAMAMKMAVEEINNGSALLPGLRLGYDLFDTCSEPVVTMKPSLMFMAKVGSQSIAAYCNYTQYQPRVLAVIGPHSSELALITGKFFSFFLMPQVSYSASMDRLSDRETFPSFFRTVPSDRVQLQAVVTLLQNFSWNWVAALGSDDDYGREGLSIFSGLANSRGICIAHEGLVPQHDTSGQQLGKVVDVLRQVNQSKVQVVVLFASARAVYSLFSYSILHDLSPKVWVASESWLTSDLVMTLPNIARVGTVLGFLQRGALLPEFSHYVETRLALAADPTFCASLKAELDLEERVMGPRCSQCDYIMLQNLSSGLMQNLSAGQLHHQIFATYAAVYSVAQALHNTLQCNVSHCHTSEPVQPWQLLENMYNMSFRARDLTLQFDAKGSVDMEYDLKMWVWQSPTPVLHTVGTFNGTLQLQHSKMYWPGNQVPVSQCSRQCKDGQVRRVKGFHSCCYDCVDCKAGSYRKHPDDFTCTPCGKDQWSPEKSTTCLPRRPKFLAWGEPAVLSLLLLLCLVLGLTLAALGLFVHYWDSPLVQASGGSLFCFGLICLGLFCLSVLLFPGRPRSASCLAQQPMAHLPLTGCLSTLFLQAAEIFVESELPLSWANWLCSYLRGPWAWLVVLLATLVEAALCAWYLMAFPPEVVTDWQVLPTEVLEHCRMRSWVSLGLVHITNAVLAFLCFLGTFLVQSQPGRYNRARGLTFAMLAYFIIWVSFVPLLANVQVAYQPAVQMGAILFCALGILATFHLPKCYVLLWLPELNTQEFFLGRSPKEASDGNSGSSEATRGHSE
T2 sequence (Q8TE23 20-839 partner): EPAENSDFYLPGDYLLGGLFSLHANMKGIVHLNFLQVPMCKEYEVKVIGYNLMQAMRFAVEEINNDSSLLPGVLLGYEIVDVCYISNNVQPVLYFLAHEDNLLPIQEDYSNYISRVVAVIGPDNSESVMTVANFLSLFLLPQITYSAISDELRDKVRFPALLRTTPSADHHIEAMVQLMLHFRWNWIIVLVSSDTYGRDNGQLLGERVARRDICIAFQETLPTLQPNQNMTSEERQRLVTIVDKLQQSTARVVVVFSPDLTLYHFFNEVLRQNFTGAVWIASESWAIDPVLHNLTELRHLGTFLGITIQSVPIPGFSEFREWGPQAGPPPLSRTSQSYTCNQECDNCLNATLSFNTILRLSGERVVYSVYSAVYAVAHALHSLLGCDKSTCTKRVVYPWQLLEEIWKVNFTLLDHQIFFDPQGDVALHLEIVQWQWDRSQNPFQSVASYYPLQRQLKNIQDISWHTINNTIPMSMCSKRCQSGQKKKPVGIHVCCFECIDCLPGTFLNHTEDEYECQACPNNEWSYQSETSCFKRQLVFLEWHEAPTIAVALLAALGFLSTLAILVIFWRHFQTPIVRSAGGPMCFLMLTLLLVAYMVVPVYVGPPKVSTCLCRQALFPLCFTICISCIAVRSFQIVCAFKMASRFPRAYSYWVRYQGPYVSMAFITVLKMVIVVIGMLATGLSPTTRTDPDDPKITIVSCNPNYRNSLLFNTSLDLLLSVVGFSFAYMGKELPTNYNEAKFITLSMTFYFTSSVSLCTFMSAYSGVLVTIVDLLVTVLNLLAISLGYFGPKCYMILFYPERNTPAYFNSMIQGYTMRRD
Description: Calcium response, opposite interspecies subunit combination. It counts as cell-based.
Source text: as §1, §2, §3

The subject of assay [3] is rat Tas1r3 with heptahelical domain of human TAS1R3, coexpressed with rat Tas1r2. Briefly: Calcium response, chimeric receptor. It counts as cell-based.
Source text: (§4) In order to elucidate the putative binding site for NHDC, we cotransfected mixtures of plasmid DNAs for the rat and human TAS1R2 and TAS1R3 receptor subunits in HEK293T cells stably expressing the chimeric G-protein G16Gust44 and measured cellular calcium responses by fluorometry following bath application of various sweet tasting compounds. […].
(§5) Figure 1 Chemical structure and calcium responses elicited by neohesperidin dihydrochalcone. (A) Structure of neohesperidin dihydrochalcone. Numbers denote carbon atom positions. (B) Representative calcium traces elicited upon stimulation with different concentrations of neohesperidin dihydrochalcone (NHDC) in HEK293T-G16Gust44 cells cotransfected with DNA for hTAS1R2/hTAS1R3. […]
as §3, with “Concentration-response curves and EC50 and IC50 values were calculated in SigmaPlot by nonlinear regression using the function f = ((a-d)/(1+(x/EC50)^nH)+d) and f = (a-b)/[1+(x/IC50)^nH]+b, respectively.” left out

The subject of assay [4] is receptors that contain the entire rat Tas1r3 or its heptahelical domain. Description: Calcium response, receptors and chimeras with rat Tas1r3 heptahelical domain. Format: cell-based, human.
Source text: as §4, §5
as §3, with “Concentration-response curves and EC50 and IC50 values were calculated in SigmaPlot by nonlinear regression using the function f = ((a-d)/(1+(x/EC50)^nH)+d) and f = (a-b)/[1+(x/IC50)^nH]+b, respectively.” left out

T1 sequence (Q7RTX0 21-852): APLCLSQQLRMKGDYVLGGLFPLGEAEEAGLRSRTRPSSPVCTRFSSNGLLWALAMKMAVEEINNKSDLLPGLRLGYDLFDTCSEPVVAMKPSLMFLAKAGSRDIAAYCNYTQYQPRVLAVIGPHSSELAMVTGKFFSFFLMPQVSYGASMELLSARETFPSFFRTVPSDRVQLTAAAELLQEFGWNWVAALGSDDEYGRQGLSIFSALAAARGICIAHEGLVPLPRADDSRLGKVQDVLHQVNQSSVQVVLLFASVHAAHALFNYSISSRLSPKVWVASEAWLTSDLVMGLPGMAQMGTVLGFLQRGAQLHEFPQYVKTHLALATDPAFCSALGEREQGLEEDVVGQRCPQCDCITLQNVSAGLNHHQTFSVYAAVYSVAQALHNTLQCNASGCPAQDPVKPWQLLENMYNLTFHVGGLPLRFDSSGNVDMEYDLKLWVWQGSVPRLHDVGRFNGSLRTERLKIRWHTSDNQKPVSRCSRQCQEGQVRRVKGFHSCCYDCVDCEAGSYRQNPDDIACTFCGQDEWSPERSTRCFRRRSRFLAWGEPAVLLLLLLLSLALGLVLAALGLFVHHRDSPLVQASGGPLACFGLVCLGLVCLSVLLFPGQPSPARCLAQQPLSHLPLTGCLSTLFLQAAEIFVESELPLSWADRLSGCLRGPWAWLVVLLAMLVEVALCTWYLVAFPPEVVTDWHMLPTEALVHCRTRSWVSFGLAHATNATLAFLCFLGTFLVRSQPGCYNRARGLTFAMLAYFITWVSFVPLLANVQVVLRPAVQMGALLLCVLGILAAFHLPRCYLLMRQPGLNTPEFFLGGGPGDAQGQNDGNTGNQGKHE
T1 sequence (Q9Z0R7 20-843 partner): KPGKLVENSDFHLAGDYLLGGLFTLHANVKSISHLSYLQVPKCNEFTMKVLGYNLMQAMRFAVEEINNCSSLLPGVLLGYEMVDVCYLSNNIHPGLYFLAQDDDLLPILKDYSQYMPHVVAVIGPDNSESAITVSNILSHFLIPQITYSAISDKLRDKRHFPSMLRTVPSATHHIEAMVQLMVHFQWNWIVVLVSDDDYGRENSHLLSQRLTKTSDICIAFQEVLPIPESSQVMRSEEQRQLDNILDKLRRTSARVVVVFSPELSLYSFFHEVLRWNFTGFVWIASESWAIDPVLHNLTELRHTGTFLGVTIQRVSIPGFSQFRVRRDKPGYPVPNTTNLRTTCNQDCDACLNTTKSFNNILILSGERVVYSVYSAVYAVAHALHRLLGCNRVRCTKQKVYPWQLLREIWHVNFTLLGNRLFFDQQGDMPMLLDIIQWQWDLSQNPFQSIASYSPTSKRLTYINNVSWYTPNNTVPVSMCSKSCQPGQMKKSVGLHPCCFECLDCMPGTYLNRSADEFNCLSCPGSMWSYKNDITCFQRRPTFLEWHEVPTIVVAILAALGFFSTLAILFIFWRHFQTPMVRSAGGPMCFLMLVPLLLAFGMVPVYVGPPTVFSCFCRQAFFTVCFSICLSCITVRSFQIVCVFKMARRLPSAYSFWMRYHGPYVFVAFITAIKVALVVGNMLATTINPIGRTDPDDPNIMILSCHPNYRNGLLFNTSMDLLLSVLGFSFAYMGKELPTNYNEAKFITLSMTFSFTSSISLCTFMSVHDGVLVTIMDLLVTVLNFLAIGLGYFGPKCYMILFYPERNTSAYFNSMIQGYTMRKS

For `COc1ccc(CCC(=O)c2c(O)cc(O[C@@H]3O[C@H](CO)[C@@H](O)[C@H](O)[C@H]3O[C@@H]3O[C@@H](C)[C@H](O)[C@@H](O)[C@H]3O)cc2O)cc1O` [NHDC, neohesperidin dihydrochalcone], the calcium response result is “elicited calcium responses” in assay [1], “did not” in assay [2], “sensitive for NHDC” in assay [3] and “did not respond to NHDC” in assay [4].

The values are drawn from paper PMC2099433, “The binding site for neohesperidin dihydrochalcone at the human sweet taste receptor” (BMC Structural Biology, 2007).
